Structures are written as SMILES.

From patent US20110124741A1, “RADIOSENSITIZER COMPOSITIONS COMPRISING SCHISANDRA CHINENSIS(TURCZ.)BAILL AND METHODS FOR USE” (ETEN BIOTECHNOLOGY LTD., CO., priority 2009, published 2011) come the findings set out here.

For test [1], the system named is HepG2 cells. Nature of the test: Annexin V-FITC/PI staining apoptosis assay by flow cytometry, with 8 Gy radiation. Format: cell-based, human. From the text: Annexin V is a 35-36 kDa Ca2+ dependent phospholipid-binding protein that has a high affinity for the membrane phospholipid phosphatidylserine (PS), and binds to cells with exposed PS. Since externalization of PS occurs in the earlier stages of apoptosis, Annexin V staining can identify apoptosis at an earlier stage than assays based on nuclear changes such as DNA fragmentation. A vital dye such as propidium iodide (PI) is typically used in conjunction with Annexin V to identify the viability of the cells. For example, cells that are considered viable are Annexin V and PI negative; cells that are in early apoptosis are Annexin V positive and PI negative; and cells that are in late apoptosis or already dead are both Annexin V and PI positive, wherein the membranes of dead and damaged cells are permeable to PI. The Annexin V staining assay was performed by Annexin V-FITC-Kit purchased from Beckman Coulter, Inc (U.S.A). The protocol was conducted according to the manufacturing manuscript.
HepG2 cells were seeded in 6-cm dish (2.5×10^5 cells/dish) for 24 hours of incubation. Various concentration of ES800 (40 or 80 μg/ml) were added into the culture medium, and then incubated for another 24 hours, wherein 0.008% DMSO was added to the control group. The cells were exposed at 8 Gy of radiation (Linear accelerator, Philips SL-18), and incubated for another 48 hours. After collection, the cells were washed by pre-cold PBS and centrifuged at 500×g. The supernatant was removed and the cells were re-suspended with binding buffer. 1 μl Annexin V-FITC solution and 5 μl PI solution were added into the cell suspension and reacted away from light on ice for 15 min. Finally, 400 μl pre-cold binding buffer was added and the samples were analyzed by flow cytometer within 30 min. The percentages of Annexin V^+ and PI^+/− double staining cells were plotted in FIG. 2.
HepG2 cells were seeded in 6-well plate (2.5×10^5 cells/well) for 24 hours of incubation. Various concentrations of ES800 (40 or 80 μg/ml) and Schisandrin B (12 or 24 μg/ml) were added into the culture medium, and then incubated for another 2 hours, wherein control group was added 0.008% DMSO. The cells were exposed at 8 Gy of radiation (Linear accelerator, Philips SL-18), and incubated for another 70 hours. After collection, the cells were washed by pre-cold PBS and centrifuged at 500×g. Following removing the supernatant, the cells were suspended with binding buffer. 1 μl Annexin V-FITC solution and 5 μl PI solution were added into the suspension and the mixture was reacted away from light on ice for 15 min. Finally, 400 μl pre-cold binding buffer was added and the samples were analyzed by flow cytometer within 30 min. The percentages of Annexin V^+ and PI^+/− double staining cells were plotted in FIG. 7.
Background: Flow cytometry measures light scatter and fluorescence of single cells or particles in a stream.

The test system of test [2] is HepG2 cells. Description: Western blot of apoptosis-related proteins (Bcl-2, p21, caspase 9 cleaved form, caspase 3 cleaved form). Format: cell-based, human. As to conditions: 12 μg/ml in combination with 8 Gy. On the procedure: HepG2 cells were seeded in 6-cm dish (2.5×10^5 cells/dish) for 24 hours of incubation. […] The cells were exposed at 8Gy of radiation (Linear accelerator, Philips SL-18), and incubated for another 48 hours. After collection, the cells were washed by PBS for three times, and then centrifuged at 360×g for 5 min. After removing the supernatant, 120 μl CelLytic-M (Sigma) and 1 μl Protease Inhibitor Cocktail (Sigma) were added into the pellet to suspend the cells and then the suspension was incubated at 4° C. for 30 min. The total protein was collected from the supernatant by centrifugation at 27210×g for 10 min.
[…] protein was loaded to run an SDS-PAGE. The gel was then transferred to PVDF and immersed into TTBS solution (2.42 g Tris base/8 g NaCl/0.1% Tween-20/per liter) containing 5% […] milk for blocking. The membrane was reacted with each primary antibody against p21, Bcl-2, caspase 9 (cleaved form), caspase 3 (cleaved form) and β-actin overnight at 4° C. After the reaction, the membrane was washed by TTBS solution three times, and then reacted with appropriate secondary antibody for another 30-min incubation. […] The bands were quantified by GE ImageMaster 2D Platinum Software. […]
The expression level of apoptosis protein in HepG2 was also detected by western blot. […]
A general note: Immunoblotting shows a protein as a band on a membrane.

For the compound `COc1cc2c(c(OC)c1OC)-c1c(cc3c(c1OC)OCO3)CC(C)C(C)C2` (centres unmarked) [Schisandrin B], in test [1] (24 μg/ml in combination with 8 Gy, 2 h pre-incubation, 70 h after radiation), the “apoptosis ratio of HepG2, compared with radiation of 8 Gy alone (FIG. 7)” value was “significantly higher”. Also, the “apoptosis ratio of HepG2, compared with the control group (FIG. 7)” value in test [1] (12 or 24 μg/ml in combination with 8 Gy, 2 h pre-incubation, 70 h after radiation) is listed as “significantly higher”. The “effect on the apoptosis of cancer cells (FIG. 7)” value in test [1] (12 or 24 μg/ml without exposure of radiation) is listed as “no effect”. For the same compound, the “effect in inhibition of the growth of cancer cells, compared with radiation therapy alone (FIG. 7)” value in test [1] (Schisandrin B in combination of radiation therapy) was “enhanced effect”. In test [2], the “expression level of caspase 3 (cleaved form), compared with radiation alone (FIG. 8)” value is reported as “significantly higher”.
